# Measured values reported in US10640534B2 (Agios Pharmaceuticals, Inc., priority 2012, dated 2020).
# Tested on: HT1080 cells
# Experiment: Cellular assay, inhibition of 2-HG production in HT1080 cells
# Type: cell-based
# Conditions: Homo sapiens, HT-1080, 48 h
# Method: Cells (HT1080 or U87MG) are grown in T125 flasks in DMEM containing 10% FBS, 1× penicillin/streptomycin and 500 ug/mL G418 (present in U87MG cells only). They are harvested by trypsin and seeded into 96 well white bottom plates at a density of 5000 cell/well in 100 ul/well in DMEM with 10% FBS. […] Cells are incubated overnight at 37° C. in 5% CO2. The next day test compounds are made up at 2× the final concentration and 100 ul are added to each cell well. The final concentration of DMSO is 0.2% and the DMSO control wells are plated in row G. The plates are then placed in the incubator for 48 hours. […] The cell plate is placed back in the incubator for another 24 hours. At 72 hours post compound addition, 10 mL/plate of Promega Cell Titer Glo reagent is thawed and mixed. The cell plate is removed from the incubator and allowed to equilibrate to room temperature. Then 100 ul of Promega Cell Titer Glo reagent is added to each well of media. The cell plate is then placed on an orbital shaker for 10 minutes and then allowed to sit at room temperature for 20 minutes. The plate is then read for luminescence with an integration time of 500 ms.
row,SMILES,IC50
1,O=C(NC1CC(F)C1)[C@H](c1ccccc1Cl)N(C(=O)[C@@H]1CCC(=O)N1c1ncccn1)c1cccc(F)c1 (stereo partly drawn) [Compound 49],100 to 500 nM
2,Cc1cccc(N2C(=O)CC[C@H]2C(=O)N(c2cccc(F)c2)[C@H](C(=O)NC2CC(F)(F)C2)c2ccccc2Cl)n1 [Compound 28],< 100 nM
3,"O=C(NC1CCC(F)(F)CC1)[C@@H](c1ccccc1Cl)N(C(=O)[C@@H]1CCC(=O)N1c1ncccn1)c1cccc(F)c1 [Compound 3, (S)—N—((R)-1-(2-Chlorophenyl)-2-((4,4-difluorocyclohexyl)amino)-2-oxoethyl)-N-(3-fluorophenyl)-5-oxo-1-(pyrimidin-2-yl)pyrrolidine-2-carboxamide]",100 to 500 nM
4,O=C(NC1CCCCC1)[C@@H](c1ccccc1Cl)N(C(=O)[C@@H]1CCC(=O)N1c1ncccn1)c1cccc(F)c1 [Compound 6],100 to 500 nM

# Tested on: U87MG cells
# Experiment: Cellular assay, inhibition of 2-HG production in U87MG cells
# Type: cell-based
# Conditions: Homo sapiens, U-87 MG, 48 h
# Method in brief: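 HT1080 or U87MG cells (U87MG kept with 500 ug/mL G418) seeded at 5000 cells/well and treated with compound at 0.2% final DMSO. Incubated 48 h at 37 °C. 2-HG inhibition determined by LC-MS. Viability read by CellTiter-Glo luminescence at 72 h post-dose.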
row,SMILES,IC50
1,O=C(NC1CC(F)C1)[C@H](c1ccccc1Cl)N(C(=O)[C@@H]1CCC(=O)N1c1ncccn1)c1cccc(F)c1 (stereo partly drawn) [Compound 49],100 to 500 nM
2,"N#Cc1ccnc(N2C(=O)CC[C@H]2C(=O)N(c2cccc(C3CC3)c2)[C@H](C(=O)NC2CC(F)(F)C2)c2ccccc2Cl)n1 [Compound 182, (S)—N—((S)-1-(2-Chlorophenyl)-2-((3,3-difluorocyclobutyl)amino)-2-oxoethyl)-1-(4-cyanopyrimidin-2-yl)-N-(3-cyclopropylphenyl)-5-oxopyrrolidine-2-carboxamide]",< 100 nM
3,"N#Cc1cccc(N(C(=O)[C@@H]2C[C@@H](O)C(=O)N2c2cc(C#N)ccn2)C(C(=O)NC2CC(F)(F)C2)c2ccccc2Cl)c1 (stereo partly drawn) [Compound 170, (2S,4R)—N-(1-(2-chlorophenyl)-2-((3,3-difluorocyclobutyl)amino)-2-oxoethyl)-N-(3-cyano-phenyl)-1-(4-cyanopyridin-2-yl)-4-hydroxy-5-oxopyrrolidine-2-carboxamide]",< 100 nM
4,"CC(=O)N1CC(=O)N(c2cc(C#N)ccn2)[C@H](C(=O)N(c2cccc(F)c2)[C@H](C(=O)NC2CC(F)(F)C2)c2ccccc2Cl)C1 [Compound 92, (S)-4-Acetyl-N—((S)-1-(2-chlorophenyl)-2-(3,3-difluorocyclobutylamino)-2-oxoethyl)-1-(4-cyanopyridin-2-yl)-N-(3-fluorophenyl)-6-oxopiperazine-2-carboxamide]",< 100 nM
5,"CS(=O)(=O)c1cc(F)cc(N(C(=O)[C@@H]2CCC(=O)N2c2nccc(C#N)n2)[C@H](C(=O)NC2CCC(F)(F)CC2)c2ccccc2Cl)c1 [Compound 168, (S)—N—((S)-1-(2-Chlorophenyl)-2-((4,4-difluorocyclohexyl)amino)-2-oxoethyl)-1-(4-cyanopyrimidin-2-yl)-N-(3-fluoro-5-(methylsulfonyl)phenyl)-5-oxopyrrolidine-2-carboxamide]",< 100 nM
6,"N#Cc1cc(F)cc(N(C(=O)[C@@H]2CCC(=O)N2c2cc(C#N)ccn2)[C@H](C(=O)NC2CC(F)(F)C2)c2ccccc2F)c1 [Compound 207, (S)—N-(3-Cyano-5-fluorophenyl)-1-(4-cyanopyridin-2-yl)-N—((S)-2-((3,3-difluorocyclobutyl)amino)-1-(2-fluorophenyl)-2-oxoethyl)-5-oxopyrrolidine-2-carboxamide]",< 100 nM
7,"N#Cc1ccnc(N2C(=O)CC[C@H]2C(=O)N(c2cccc3[nH]cnc23)C(C(=O)NC2CCC(F)(F)CC2)c2ccccc2Cl)c1 (stereo partly drawn) [Compound 141, (2S)—N-(1H-benzo[d]imidazol-7-yl)-N-(1-(2-chlorophenyl)-2-((4,4-difluorocyclohexyl)amino)-2-oxoethyl)-1-(4-cyanopyridin-2-yl)-5-oxopyrrolidine-2-carboxamide]",< 100 nM
8,"N#Cc1ccnc(N2C(=O)[C@H](O)C[C@H]2C(=O)N(c2cccc(F)c2)[C@H](C(=O)NC2CC(F)(F)C2)c2ccccc2Cl)n1 [Compound 120, (2S,4R)—N—((S)-1-(2-Chlorophenyl)-2-((3,3-difluorocyclobutyl)amino)-2-oxoethyl)-1-(4-cyanopyrimidin-2-yl)-N-(3-fluorophenyl)-4-hydroxy-5-oxopyrrolidine-2-carboxamide]",100 to 500 nM
9,"N#Cc1cccc(N(C(=O)[C@@H]2CCC(=O)N2c2cc(C#N)ccn2)[C@H](C(=O)NC2CC(F)(F)C2)c2ccccc2Cl)c1 [Compound 128, (S)—N—((S)-1-(2-Chlorophenyl)-2-((3,3-difluorocyclobutyl)amino)-2-oxoethyl)-N-(3-cyano-phenyl)-1-(4-cyanopyridin-2-yl)-5-oxopyrrolidine-2-carboxamide]",< 100 nM
10,"C[S@+]([O-])c1cc(F)cc(N(C(=O)[C@@H]2CCC(=O)N2c2cc(C#N)ccn2)[C@H](C(=O)NC2CC(F)(F)C2)c2ccccc2Cl)c1 [Compound 190, (S)—N—((S)-1-(2-Chlorophenyl)-2-(3,3-difluorocyclobutylamino)-2-oxoethyl)-1-(4-cyanopyridin-2-yl)-N-(3-fluoro-5-((S)-methylsulfinyl)phenyl)-5-oxopyrrolidine-2-carboxamide]",< 100 nM
11,"N#Cc1ccnc(N2C(=O)OC[C@H]2C(=O)N(c2cncc(F)c2)[C@H](C(=O)NC2CC(F)(F)C2)c2ccccc2Cl)c1 [Compound 135, (S)—N—((S)-1-(2-Chlorophenyl)-2-((3,3-difluorocyclobutyl)amino)-2-oxoethyl)-3-(4-cyanopyridin-2-yl)-N-(5-fluoropyridin-3-yl)-2-oxooxazolidine-4-carboxamide]",< 100 nM
12,O=C(NC1CC(F)(F)C1)C(c1c(Cl)cccc1Cl)N(C(=O)[C@@H]1CCC(=O)N1c1ncccn1)c1cccc(F)c1 (stereo partly drawn) [Compound 51],100 to 500 nM
13,"N#Cc1ccnc(N2C(=O)CC[C@H]2C(=O)N(c2ccc3[nH]ncc3c2)[C@H](C(=O)NC2CCC(F)(F)CC2)c2ccccc2Cl)c1 [Compound 203, (S)—N—((S)-1-(2-Chlorophenyl)-2-((4,4-difluorocyclohexyl)amino)-2-oxoethyl)-1-(4-cyanopyridin-2-yl)-N-(1H-indazol-5-yl)-5-oxopyrrolidine-2-carboxamide]",< 100 nM
14,O=C(NC1CC(F)(F)C1)C(c1ccccc1Cl)N(C(=O)[C@@H]1CCC(=O)N1c1ccccn1)c1cccc(F)c1 (stereo partly drawn) [Compound 5],100 to 500 nM
15,"CC(C)(O)c1cccc(N(C(=O)[C@@H]2CCC(=O)N2c2cc(C#N)ccn2)[C@H](C(=O)NC2CC(F)(F)C2)c2ccccc2Cl)c1 [Compound 179, (S)—N—((S)-1-(2C)-2-((3,3-difluorocyclobutyl)amino)-2-oxoethyl)-1-(4-cyanopyridin-2-yl)-N-(3-(2-hydroxypropan-2-yl)phenyl)-5-oxopyrrolidine-2-carboxamide]",< 100 nM
16,"N#Cc1ccnc(N2C(=O)CCC[C@H]2C(=O)N(c2cccc(F)c2)[C@H](C(=O)NC2CCC(F)(F)CC2)c2ccccc2Cl)c1 [Compound 75, (S)—N—((S)-1-(2-Chlorophenyl)-2-((4,4-difluorocyclohexyl)amino)-2-oxoethyl)-1-(4-cyano-pyridin-2-yl)-N-(3-fluorophenyl)-6-oxopiperidine-2-carboxamide]",< 100 nM
17,"N#Cc1ccnc(N2C(=O)[C@H](O)C[C@H]2C(=O)N(c2cc(F)cc(F)c2)[C@H](C(=O)NC2CC(F)(F)C2)c2ccccc2Cl)c1 [Compound 115, (2S,4R)—N—((S)-1-(2-Chlorophenyl)-2-((3,3-difluorocyclobutyl)amino)-2-oxoethyl)-1-(4-cyanopyridin-2-yl)-N-(3,5-difluorophenyl)-4-hydroxy-5-oxopyrrolidine-2-carboxamide]",< 100 nM
18,"N#Cc1cnc(N2C(=O)CC[C@H]2C(=O)N(c2cc(F)cc(F)c2)[C@H](C(=O)NC2CC(F)(F)C2)c2ccccc2Cl)o1 [Compound 162, (S)—N—((S)-1-(2-chlorophenyl)-2-((3,3-difluorocyclobutyl)amino)-2-oxoethyl)-1-(5-cyanooxazol-2-yl)-N-(3,5-difluorophenyl)-5-oxopyrrolidine-2-carboxamide]",< 100 nM
19,"N#Cc1ccnc(N2C(=O)CC[C@H]2C(=O)N(c2ccc3[nH]ncc3c2)[C@H](C(=O)NC2CC(F)(F)C2)c2ccccc2Cl)c1 [Compound 175, (S)—N—((S)-1-(2-Chlorophenyl)-2-((3,3-difluorocyclobutyl)amino)-2-oxoethyl)-1-(4-cyanopyridin-2-yl)-N-(1H-indazol-5-yl)-5-oxopyrrolidine-2-carboxamide]",< 100 nM
20,"N#Cc1ccnc(N2C(=O)CC[C@H]2C(=O)N(c2cc(F)cc(F)c2)[C@H](C(=O)NC2CC(F)(F)C2)c2ccccc2Cl)n1 [Compound 86, (S)—N—((S)-1-(2-Chlorophenyl)-2-((3,3-difluorocyclobutyl)amino)-2-oxoethyl)-1-(4-cyanopyrimidin-2-yl)-N-(3,5-difluorophenyl)-5-oxopyrrolidine-2-carboxamide]",< 100 nM
21,O=C(NC1CC(F)(F)C1)[C@H](c1ccccc1Cl)N(C(=O)[C@@H]1CCC(=O)N1c1ncccn1)c1cccc(F)c1 [Compound 1],100 to 500 nM
22,CNS(=O)(=O)c1cccc(N(C(=O)[C@@H]2CCC(=O)N2c2cc(C#N)ccn2)[C@H](C(=O)NC2CC(F)(F)C2)c2ccccc2Cl)c1 [Compound 157],< 100 nM
23,"N#Cc1ccnc(N2C(=O)OCC[C@H]2C(=O)N(c2cc(F)cc(F)c2)[C@H](C(=O)NC2CCC(F)(F)CC2)c2ccccc2Cl)c1 [Compound 139, (S)—N—((S)-1-(2-Chlorophenyl)-2-((4,4-difluorocyclohexyl)amino)-2-oxoethyl)-3-(4-cyanopyridin-2-yl)-N-(3,5-difluorophenyl)-2-oxo-1,3-oxazinane-4-carboxamide]",< 100 nM
